# In publication PMC12678798, “Discovery of an allosteric binding site for anthraquinones at the human P2X4 receptor” (Nature Communications, 2025):
# Read-outs that look alike come from different tables or passages of the source.
# Tests used:
# [1] = target: T1, human solubilized and purified P2X4-E307T receptor mutant reconstituted into nanodiscs (Homo sapiens, UniProt Q99571, E307T/N184R/N75R); test: Homologous competition binding vs [35S]ATPγS, purified P2X4-E307T receptor in nanodiscs; conditions: 0.2 nM [35S]ATPγS; P2X4-E307T construct in nanodiscs
# T1 construct: The full-length human P2X4 receptor gene was subcloned into the pFastBac1 vector; Rho1D4 (fused by GSSG linker) (C); GSSG linker + human rhinovirus 3C protease site + 10x-His (C); made in house; host or cells: Sf9 insect cells (baculovirus)
# T1 sequence (Q99571 whole entry N75R/N184R/E307T, the tested form may be a part): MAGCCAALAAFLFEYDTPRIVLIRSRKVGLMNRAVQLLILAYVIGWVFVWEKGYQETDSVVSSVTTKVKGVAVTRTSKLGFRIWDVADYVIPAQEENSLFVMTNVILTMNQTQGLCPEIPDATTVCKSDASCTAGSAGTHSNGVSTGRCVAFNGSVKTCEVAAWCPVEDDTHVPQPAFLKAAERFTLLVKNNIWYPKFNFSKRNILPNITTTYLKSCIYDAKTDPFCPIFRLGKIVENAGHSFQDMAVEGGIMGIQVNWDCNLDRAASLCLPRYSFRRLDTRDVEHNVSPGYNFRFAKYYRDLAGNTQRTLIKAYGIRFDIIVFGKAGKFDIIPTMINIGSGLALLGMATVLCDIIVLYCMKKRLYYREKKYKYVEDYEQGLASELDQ
# Protocol: (§1) Radioligand binding studies were performed according to a published procedure. […] After an incubation of 1 h at room temperature, the incubation was terminated by rapid vacuum filtration through GF/B glass fiber filters using a Brandel 48-well harvester (Brandel). The filters were rinsed three times with ice-cold Tris-HCl buffer (50 mM, pH 7.4, 3-4 mL each) to separate unbound from bound radioligand. After punching out the filters and transferring them into scintillation vials, scintillation cocktail (2.5 mL, Ultima Gold®) was added. The samples were measured after 6 h of preincubation using a liquid scintillation counter for 1 min each. All data from calcium influx assays and radioligand binding studies were analyzed using Microsoft Excel. […] KD and Bmax values from radioligand binding assays were calculated by using the “one site-homologous” equation, implemented in GraphPad Prism version 8.0. The level of significance was calculated by a one-way ANOVA with Dunnett's post hoc test, in case there was a control group, and multiple comparison was required. […] The significance levels were defined as follows: *P < 0.05, **P < 0.01, ***P < 0.001, ****P < 0.0001.
# human wt P2X4 receptor = target: T2, human wt P2X4 receptor (Homo sapiens, UniProt Q99571); test: Homologous competition binding vs [35S]ATPγS, 1321N1 astrocytoma cell membranes; conditions: 0.2 nM [35S]ATPγS, 1321N1 membranes
# T2 construct: expressed in transfected cells
# T2 sequence (Q99571 1-388): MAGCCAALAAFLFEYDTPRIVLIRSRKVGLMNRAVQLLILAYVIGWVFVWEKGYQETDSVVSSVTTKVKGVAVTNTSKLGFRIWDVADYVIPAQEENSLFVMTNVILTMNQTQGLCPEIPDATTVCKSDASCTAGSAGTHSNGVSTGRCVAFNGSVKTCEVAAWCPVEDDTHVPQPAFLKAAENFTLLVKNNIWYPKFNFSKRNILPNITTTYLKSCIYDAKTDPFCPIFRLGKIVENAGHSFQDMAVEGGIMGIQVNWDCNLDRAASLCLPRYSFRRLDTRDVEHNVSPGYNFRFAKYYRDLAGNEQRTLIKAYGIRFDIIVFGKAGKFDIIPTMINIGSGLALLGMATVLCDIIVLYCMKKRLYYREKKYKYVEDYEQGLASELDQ
# Protocol: as §1
# [2] = set-up: method as in not given; conditions: rebuttal comparison table; ref not given; cited from earlier work
# human P2X4 receptor [3] = target: human P2X4 receptor; set-up: method as in https://doi.org/10.1124/mol.114.096222; conditions: patch clamp, HEK293; ref https://doi.org/10.1124/mol.114.096222; read-out: Potency (IC50 value) at the human P2X4 receptor; cited from earlier work
# human P2X4 receptor [4] = target: human P2X4 receptor; set-up: method as in ref 10.1016/j.heliyon.2023.e21265; conditions: SPR competition assay; ref 10.1016/j.heliyon.2023.e21265; read-out: Potency (IC50 value) at the human P2X4 receptor; cited from earlier work
# mouse P2X4 receptors = system: mouse P2X4 receptors; set-up: method as in not given; conditions: ref not given; cited from earlier work
# rat P2X4 receptors = system: rat P2X4 receptors; set-up: method as in not given; conditions: ref not given; cited from earlier work
# human P2X4 receptor [5] = system: human P2X4 receptor; set-up: method as in not given; conditions: assay and ref not given; cited from earlier work
# [6] = set-up: method as in not given; conditions: ref not given; cited from earlier work
compound,measurement,setting,value
Nc1ncnc2c1ncn2[C@@H]1O[C@H](CO[P@](=O)(O)O[P@](=O)(O)O[P@@](=O)(O)S)[C@@H](O)[C@H]1O [ATPγS],Dissociation constant (KD value),[1],6.01 ± 0.81 nM
same,Kd,human wt P2X4 receptor,14.1 ± 2.7 nM
CC(C)c1cc(Br)c(NC(=O)Nc2cccnc2)c(Br)c1 [BX430],Lipophilicity,[2],Lipophilic
same,IC50,human P2X4 receptor [3],540 nM
same,IC50,human P2X4 receptor [4],4500 nM
same,Potency at mouse compared with human P2X4 receptors,mouse P2X4 receptors,significantly weaker
same,Potency at rat compared with human P2X4 receptors,rat P2X4 receptors,significantly weaker
"NS(=O)(=O)c1cc(NC(=O)Cc2ccccc2)ccc1Oc1cccc(Cl)c1 [BAY-1797, N-4-(3-chlorophenoxy)-3-sulfamoylphenyl-2-phenylacetamide]",Extent of receptor inhibition (no complete inhibition),human P2X4 receptor [5],about 80%
same,Oral bioavailability,[6],orally bioavailable
